Non-standard residues stand in square brackets, D forms with d. Residues, ends and D or L forms follow the SMILES beside them. Hyp = O=C(O)[C@@H]1C[C@@H](O)CN1; Ahx = NCCCCCC(=O)O
Tests used:
Panc-1 cells = assay: Wound healing; assay type: cell-based; details: 10 μM for 24 h, FBS-free DMEM
Description: Cells were seeded in 6-well plates. Monolayer cells were scratched after culturing to obtain at least 95% confluence. Cells were washed with PBS and maintained in FBS-free DMEM and then treated with 10 μM PRTC and PRTC-m for 24 h. Migration distance was observed by microscopy and was measured by ImageJ from three individual experiments.

Panc-1 xenograft tumors = assay: Xenograft tumor model; assay type: in vivo; details: female Balb/c nude mice, 10 mg/kg intraperitoneal every 2 days for 4 weeks, n=5, in comparison with control mice
Description: For the xenograft model, 5×10^6 wild-type Panc-1 cells or CREPT knockout Panc-1 cells were subcutaneously injected into 4-week-old female Balb/c nude mice, which were purchased from Beijing Vital River Laboratory Animal Technology Co., Ltd. Each experimental group consisted of five mice. Mice bearing tumors were randomly divided into two groups and administered via intraperitoneal injection control solvent (0.9% saline) or PRTC (dissolved in 0.9% saline, 10 mg/kg) every 2 days for 4 weeks. The body weight of mice were measured every week after treated with 0.9% saline or PRTC. Tumor volume was measured by using the formula V = (a × b^2)/2 (V is volume, a is the length of the tumor, b is the width of the tumor).

## CC[C@H](C)[C@H](N)C(=O)N[C@@H](Cc1ccc(O)cc1)C(=O)N1C[C@H](O)C[C@H]1C(=O)N[C@@H](C)C(=O)N[C@@H](CC(C)C)C(=O)NCCCCCC(=O)N[C@@H](CCCCN)C(=O)N[C@@H](CC(=O)O)C(=O)N[C@H](C(=O)N[C@@H](CC(C)C)C(=O)N[C@@H](CO)C(=O)N[C@@H](CCC(=O)O)C(=O)N[C@@H](CCCCN)C(=O)N[C@@H](CCC(=O)O)C(=O)N[C@@H](CCCCN)C(=O)N[C@@H](CCCCN)C(=O)N[C@@H](CC(C)C)C(=O)N[C@@H](CCC(=O)O)C(=O)N[C@@H](CCC(=O)O)C(=O)N[C@@H](Cc1ccc(O)cc1)C(=O)N[C@@H](CCCCN)C(=O)N[C@@H](CCC(N)=O)C(=O)N[C@@H](CCCCN)C(=O)N[C@@H](CC(C)C)C(=O)N[C@@H](C)C(=O)N[C@@H](CCCNC(=N)N)C(=O)N[C@H](C(=O)N[C@@H](CCCNC(=N)N)C(=O)N[C@@H](CCCNC(=N)N)C(=O)N[C@@H](CCCNC(=N)N)C(=O)N[C@@H](CCCNC(=N)N)C(=O)N[C@@H](CCCCN)C(=O)O)C(C)C)C(C)C [PRTC] (H-IY[Hyp]AL[Ahx]KDVLSEKEKKLEEYKQKLARVRRRRK-OH; N-terminus and C-terminus assumed)
Panc-1 cells
  cell movement (wound healing): decreased cell movement
Panc-1 xenograft tumors
  tumor weight and size: significantly decreases

Reference: publication PMC7069095, “A cell-permeable peptide-based PROTAC against the oncoprotein CREPT proficiently inhibits pancreatic cancer” (Theranostics, 2020)
